Reference: ChEMBL document CHEMBL3714766, “Tetrahydroisoquinoline compounds and their use as pyruvate dehydrogenase kinase inhibitors” (2015)

Key:
[1] = target: T1, Pyruvate dehydrogenase kinase (Homo sapiens, UniProt Q15119+Q15120+Q16654+Q15118); assay: Binding affinity to pyruvate dehydrogenase kinase (unknown origin) by VER-00160364 probe based fluorescence polarization assay
[2] = target: T1, Pyruvate dehydrogenase kinase; assay: Inhibition of pyruvate dehydrogenase kinase in human PC3 cells incubated for 90 mins by phospho(Ser293)E1alpha MSP ELISA method; type: cell-based; details: pc-3
[3] = target: T1, Pyruvate dehydrogenase kinase; assay: Inhibition of pyruvate dehydrogenase kinase (unknown origin) assessed as reduction in E1 phosphorylation incubated for 1 hr by DELFIA method; type: protein assay

Row | IC50 [1] [nM] | IC50 [2] [nM] | IC50 [3] [nM] | Structure (SMILES)
1 | 100 | 1000 | – | COc1cnc(Cl)nc1-c1ccc2c(c1)CC[C@H](C)N2C(=O)c1ccc(O)cc1O
2 | – | – | 10 | Cc1cc(S(=O)(=O)NCc2ccccc2)cnc1-c1ccc2c(c1)CCC(c1cccnc1)N2C(=O)c1ccc(O)cc1O (stereo unspecified)
3 | 100 | 1000 | – | Cc1nc(C(F)(F)F)nc(-c2ccc3c(c2)CC[C@H](C)N3C(=O)c2ccc(O)cc2O)c1C
4 | 10 | 1000 | – | Cc1cc(S(=O)(=O)NCc2ccncc2)cnc1-c1ccc2c(c1)CC[C@H](C)N2C(=O)c1ccc(O)cc1O
5 | – | 1000 | 100 | Cc1cnc(Cl)nc1-c1ccc2c(c1)CC[C@H](c1cccnc1)N2C(=O)c1ccc(O)cc1O
6 | – | – | 10 | Cc1cc(S(=O)(=O)N2CC(F)(F)C2)cnc1-c1ccc2c(c1)CCC(c1cccnc1)N2C(=O)c1ccc(O)cc1O (stereo unspecified)
7 | 100 | 1000 | – | O=C(c1ccc(O)cc1O)N1c2ccc(-c3nc(Cl)nc4[nH]ccc34)cc2CCC1c1cccnc1 (stereo unspecified)
8 | 10 | 10000 | – | C[C@H]1CCc2cc(C(=O)N(C)Cc3cccs3)ccc2N1C(=O)c1ccc(O)cc1O
9 | 100 | 1000 | – | COc1ccc(CN(C)C(=O)c2ccc3c(c2)CC[C@H](C)N3C(=O)c2ccc(O)cc2O)cc1
10 | 10 | 1000 | – | C[C@H]1CCc2cc(C(=O)N(C)Cc3ccc4nccnc4c3)ccc2N1C(=O)c1ccc(O)cc1O
11 | – | – | 100 | O=C(c1ccc(O)cc1O)N1c2ccccc2CCC1C(F)(F)F (stereo unspecified)
12 | 100 | 1000 | – | C[C@H]1CCc2cc(C(=O)N(C)Cc3ccc4ccccc4n3)ccc2N1C(=O)c1ccc(O)cc1O

The next lines start with the compound.

Row | Structure (SMILES) | IC50 [1] [nM] | IC50 [2] [nM] | IC50 [3] [nM]
13 | Cc1cc(S(=O)(=O)N2CCC(F)(F)CC2)cnc1-c1ccc2c(c1)CCC(c1cccnc1)N2C(=O)c1ccc(O)cc1O (stereo unspecified) | – | – | 10
14 | C[C@H]1CCc2cc(-c3nc(Cl)nc4[nH]ccc34)ccc2N1C(=O)c1ccc(O)cc1O | 1000 | 1000 | –
15 | C[C@H]1CCc2cc(C(=O)N(C)Cc3cccc4ccccc34)ccc2N1C(=O)c1ccc(O)cc1O | 100 | 1000 | –
16 | O=C(c1ccc(O)cc1O)N1c2ccc(-c3ncnc4cccc(F)c34)cc2CCC1c1cccnc1 (stereo unspecified) | – | – | 10
17 | C[C@H]1CCc2cc(C(=O)N(C)Cc3cccc4cnccc34)ccc2N1C(=O)c1ccc(O)cc1O | 10 | 1000 | –
18 | Cc1cnc(Cl)nc1-c1ccc2c(c1)CCC(C)N2C(=O)c1cc(Cl)c(O)cc1O (stereo unspecified) | 100 | 1000 | –
19 | O=C(c1cc(Cl)c(O)cc1O)N1c2ccccc2CC[C@@H]1c1cccnc1 | – | – | 100
20 | Cc1csc2ncnc(-c3ccc4c(c3)CC[C@H](C)N4C(=O)c3ccc(O)cc3O)c12 | 100 | 1000 | –
21 | COc1cnc(Cl)nc1-c1ccc2c(c1)CC[C@H](c1cccnc1)N2C(=O)c1cc(Cl)c(O)cc1O | – | 1000 | 100
